Residues, ends and D or L forms follow the SMILES beside them.
Experiments:
[1] = target: T1, truncated human erythropoietin receptor cell line (Homo sapiens, UniProt P19235); experiment: cell-based
T1 sequence (P19235 25-468 limits assumed): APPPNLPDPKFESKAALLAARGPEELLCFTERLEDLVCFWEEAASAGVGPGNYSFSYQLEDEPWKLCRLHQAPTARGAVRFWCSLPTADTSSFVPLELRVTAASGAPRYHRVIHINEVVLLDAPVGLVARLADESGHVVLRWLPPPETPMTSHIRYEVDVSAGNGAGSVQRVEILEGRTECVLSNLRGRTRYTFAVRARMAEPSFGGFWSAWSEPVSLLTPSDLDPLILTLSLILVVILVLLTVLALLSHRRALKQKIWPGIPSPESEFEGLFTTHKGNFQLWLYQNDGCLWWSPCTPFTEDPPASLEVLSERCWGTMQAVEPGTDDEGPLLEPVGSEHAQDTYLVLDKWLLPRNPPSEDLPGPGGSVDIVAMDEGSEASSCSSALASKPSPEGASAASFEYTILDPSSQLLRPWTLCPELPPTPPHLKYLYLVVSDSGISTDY
Experimental: (§1) Cells are harvested and resuspended in fresh medium without growth factor (erytiropoietin) for 24 hr. Cells are counted and resuspended at a concentration of 800,000 cells/ml. Approximately forty thousand cells (50μ) are added to each well of a 96 well microtiter plate. Peptide is added to each well in triplicate. A standard dose response determination is run with each series of peptides. After a forty-two hr incubation (≈2 doubling), each well is pulsed with 1 μCi/well Thymidine. Cells are incubated an additional six hr at which time cells are harvested and counted to assess thymidine incorporation as an indicator of cell proliferation.

[2] = target: T2, murine receptor (FDC-P1/ER cells) (Mus musculus, UniProt P14753); experiment: cell-based; conditions: IA = inactive
T2 sequence (P14753 25-507): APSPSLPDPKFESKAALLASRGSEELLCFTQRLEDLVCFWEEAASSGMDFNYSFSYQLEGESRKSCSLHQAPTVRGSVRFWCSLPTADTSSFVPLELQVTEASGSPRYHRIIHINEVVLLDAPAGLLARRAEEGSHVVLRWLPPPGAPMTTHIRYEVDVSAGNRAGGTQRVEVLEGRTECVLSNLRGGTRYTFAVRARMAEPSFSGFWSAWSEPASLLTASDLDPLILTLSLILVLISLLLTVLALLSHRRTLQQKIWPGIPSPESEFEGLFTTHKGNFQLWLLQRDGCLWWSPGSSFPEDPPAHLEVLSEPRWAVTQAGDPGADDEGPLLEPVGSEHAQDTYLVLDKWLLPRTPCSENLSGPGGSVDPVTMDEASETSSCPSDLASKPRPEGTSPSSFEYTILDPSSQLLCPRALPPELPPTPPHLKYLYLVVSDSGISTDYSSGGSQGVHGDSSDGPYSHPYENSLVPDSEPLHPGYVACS
Experimental: Sample Preparation: Peptides were resuspended in DMSO as a 1×10^-2 M stock solution and serially diluted in 10-fold increments to generate the following 100×solutions:
Two μl of each stock dilution was added to a cell well as described below in a total volume of 200 μl to generate final concentrations as follows:
as §1

[3] = EPO-ED50 (μM)* murine receptor, Tables 20-21
[4] = EPO-ED50 (μM), Tables 17-19, amount for half maximal level of EPO dependent proliferation

Compound `CC[C@H](C)[C@H](NC(=O)[C@H](Cc1ccc(O)cc1)NC(=O)[C@H](CCC(N)=O)NC(=O)[C@H](C)NC(=O)[C@@H](NC(=O)[C@@H](N)[C@@H](C)O)[C@@H](C)CC)C(=O)N[C@H]1CSSC[C@@H](C(=O)N[C@@H](CCCNC(=N)N)C(=O)N2CCC[C@H]2C(=O)N[C@@H](CO)C(=O)N2CCC[C@H]2C(=O)N[C@@H](CCCCN)C(=O)N[C@@H](C)C(N)=O)NC(=O)[C@H](CCC(=O)O)NC(=O)[C@H](Cc2c[nH]c3ccccc23)NC(=O)[C@H]([C@@H](C)O)NC(=O)[C@H](CCC(=O)O)NC(=O)[C@@H]2CCCN2C(=O)CNC(=O)[C@H](CCSC)NC(=O)[C@H](Cc2ccc(O)cc2)NC1=O` [AF11654] (HELM PEPTIDE1{T.I.A.Q.Y.I.C.Y.M.G.P.E.T.W.E.C.R.P.S.P.K.A.[am]}$PEPTIDE1,PEPTIDE1,7:R3-16:R3$$$V2.0) has an EC50 [1] of 0.02 µM and an EC50 [2, 3] of 0.2 µM.

With `CC(C)C[C@@H]1NC(=O)[C@@H]2CCCN2C(=O)CNC(=O)[C@H](Cc2ccccc2)NC(=O)[C@H](Cc2c[nH]cn2)NC(=O)[C@@H](NC(=O)[C@H](CO)NC(=O)[C@H](Cc2ccc(O)cc2)NC(=O)[C@@H](N)[C@@H](C)O)CSSC[C@@H](C(=O)N[C@@H](CCCCN)C(=O)N2CCC[C@H]2C(=O)N[C@@H](CCC(N)=O)C(N)=O)NC(=O)[C@H](C(C)C)NC(=O)[C@H](Cc2c[nH]c3ccccc23)NC(=O)[C@H]([C@@H](C)O)NC1=O` [RWJ 61230] (HELM PEPTIDE1{T.Y.S.C.H.F.G.P.L.T.W.V.C.K.P.Q.[am]}$PEPTIDE1,PEPTIDE1,4:R3-13:R3$$$V2.0) the EC50 [2, 4] was 2 µM.

`CC(C)C[C@@H]1NC(=O)[C@@H]2CCCN2C(=O)CNC(=O)[C@H](Cc2ccccc2)NC(=O)[C@H](Cc2c[nH]cn2)NC(=O)[C@@H](NC(=O)[C@H](CO)NC(=O)[C@@H](N)Cc2ccc(O)cc2)CSSC[C@@H](C(=O)N[C@@H](CCCCN)C(=O)N2CCC[C@H]2C(N)=O)NC(=O)[C@H](C(C)C)NC(=O)[C@H](Cc2c[nH]c3ccccc23)NC(=O)[C@H]([C@@H](C)O)NC1=O` [RWJ 61232] (HELM PEPTIDE1{Y.S.C.H.F.G.P.L.T.W.V.C.K.P.[am]}$PEPTIDE1,PEPTIDE1,3:R3-12:R3$$$V2.0) was tested, and the EC50 [2, 4] was 20 µM.

`CC(C)C[C@@H]1NC(=O)[C@H](C)NC(=O)CNC(=O)[C@H](Cc2ccccc2)NC(=O)[C@H](Cc2c[nH]cn2)NC(=O)[C@@H](NC(=O)[C@H](CO)NC(=O)[C@H](Cc2ccc(O)cc2)NC(=O)[C@@H](NC(=O)CNC(=O)CN)[C@@H](C)O)CSSC[C@@H](C(=O)N[C@@H](CCCCN)C(=O)N2CCC[C@H]2C(=O)N[C@@H](CCC(N)=O)C(=O)NCC(=O)NCC(N)=O)NC(=O)[C@H](C(C)C)NC(=O)[C@H](Cc2c[nH]c3ccccc23)NC(=O)[C@H]([C@@H](C)O)NC1=O` [RWJ 61277] (HELM PEPTIDE1{G.G.T.Y.S.C.H.F.G.A.L.T.W.V.C.K.P.Q.G.G.[am]}$PEPTIDE1,PEPTIDE1,6:R3-15:R3$$$V2.0) showed an EC50 [2, 4] of 0.1 µM.

`CC(C)C[C@@H]1NC(=O)[C@@H]2CCCN2C(=O)CNC(=O)[C@H](Cc2ccccc2)NC(=O)[C@H](Cc2c[nH]cn2)NC(=O)[C@@H](NC(=O)[C@H](CO)NC(=O)[C@@H](N)Cc2ccc(O)cc2)CSSC[C@@H](C(=O)N[C@@H](CCCCN)C(N)=O)NC(=O)[C@H](C(C)C)NC(=O)[C@H](Cc2c[nH]c3ccccc23)NC(=O)[C@H]([C@@H](C)O)NC1=O` [RWJ 61279] (HELM PEPTIDE1{Y.S.C.H.F.G.P.L.T.W.V.C.K.[am]}$PEPTIDE1,PEPTIDE1,3:R3-12:R3$$$V2.0) showed an EC50 [2, 4] of 3 µM.

Work on `CC(C)[C@@H]1NC(=O)[C@H](Cc2c[nH]c3ccccc23)NC(=O)[C@H]([C@@H](C)O)NC(=O)[C@H](C)NC(=O)[C@@H]2CCCN2C(=O)CNC(=O)[C@H](Cc2ccccc2)NC(=O)[C@H](Cc2c[nH]cn2)NC(=O)[C@@H](NC(=O)[C@H](CO)NC(=O)[C@H](Cc2ccc(O)cc2)NC(=O)[C@@H](NC(=O)CNC(=O)CN)[C@@H](C)O)CSSC[C@@H](C(=O)N[C@@H](CCCCN)C(=O)N2CCC[C@H]2C(=O)N[C@@H](CCC(N)=O)C(=O)NCC(=O)NCC(N)=O)NC1=O` [RWJ 61314] (HELM PEPTIDE1{G.G.T.Y.S.C.H.F.G.P.A.T.W.V.C.K.P.Q.G.G.[am]}$PEPTIDE1,PEPTIDE1,6:R3-15:R3$$$V2.0) yielded an EC50 [2, 4] of 0.2 µM.

Compound `CC(C)C[C@@H]1NC(=O)[C@@H]2CCCN2C(=O)CNC(=O)[C@H](Cc2ccccc2)NC(=O)[C@H](Cc2c[nH]cn2)NC(=O)[C@@H](NC(=O)[C@@H](N)Cc2ccc(O)cc2)CSSC[C@@H](C(N)=O)NC(=O)[C@H](C(C)C)NC(=O)[C@H](Cc2c[nH]c3ccccc23)NC(=O)[C@H]([C@@H](C)O)NC1=O` [RWJ 61513] (HELM PEPTIDE1{Y.C.H.F.G.P.L.T.W.V.C.[am]}$PEPTIDE1,PEPTIDE1,2:R3-11:R3$$$V2.0) has an EC50 [2, 4] of 2 µM.

Compound `CC(C)C[C@@H]1NC(=O)[C@@H]2CCCN2C(=O)CNC(=O)[C@H](Cc2ccccc2)NC(=O)[C@H](Cc2c[nH]cn2)NC(=O)[C@@H](NC(=O)[C@H](CO)NC(=O)[C@H](Cc2ccc(O)cc2)NC(=O)[C@@H](N)[C@@H](C)O)CSSC[C@@H](C(=O)N[C@@H](CCCCN)C(=O)N2CCC[C@H]2C(=O)N[C@@H](CCC(N)=O)C(=O)NCC(=O)NCC(N)=O)NC(=O)[C@H](C(C)C)NC(=O)[C@H](Cc2c[nH]c3ccccc23)NC(=O)[C@H]([C@@H](C)O)NC1=O` [RWJ 61597] (HELM PEPTIDE1{T.Y.S.C.H.F.G.P.L.T.W.V.C.K.P.Q.G.G.[am]}$PEPTIDE1,PEPTIDE1,4:R3-13:R3$$$V2.0) has an EC50 [2, 4] of 2 µM.

`CSCC[C@@H]1NC(=O)[C@H](Cc2c[nH]cn2)NC(=O)[C@@H](NC(=O)[C@H](C)NC(=O)[C@H](Cc2ccc(O)cc2)NC(=O)[C@H](CC(C)C)NC(=O)CNC(=O)CN)CSSC[C@@H](C(=O)N[C@@H](CCC(N)=O)C(=O)N2CCC[C@H]2C(=O)N[C@@H](CC(C)C)C(=O)N[C@@H](CCCNC(=N)N)C(=O)NCC(N)=O)NC(=O)[C@H](C(C)C)NC(=O)[C@H](Cc2c[nH]c3ccccc23)NC(=O)[C@H]([C@@H](C)O)NC(=O)[C@H](CCSC)NC(=O)[C@@H]2CCCN2C(=O)CNC1=O` [RWJ 61718] gave an EC50 [1] of 0.08 µM, an EC50 [2, 3] of 0.15 µM and an EC50 [2, 4] of 0.1 µM.

For `CSCC[C@@H]1NC(=O)[C@H](CCCNC(=N)N)NC(=O)[C@@H](NC(=O)[C@H](CC(C)C)NC(=O)[C@H](Cc2ccc(O)cc2)NC(=O)[C@H](CCC(=O)O)NC(=O)CNC(=O)CN)CSSC[C@@H](C(=O)N[C@H](C(=O)N2CCC[C@H]2C(=O)N[C@H](C(=O)NCC(=O)NCC(N)=O)C(C)C)[C@@H](C)O)NC(=O)[C@H](C(C)C)NC(=O)[C@H](Cc2c[nH]c3ccccc23)NC(=O)[C@H]([C@@H](C)O)NC(=O)[C@H](CCSC)NC(=O)[C@@H]2CCCN2C(=O)CNC1=O` [RWJ 61719] (HELM PEPTIDE1{G.G.E.Y.L.C.R.M.G.P.M.T.W.V.C.T.P.V.G.G.[am]}$PEPTIDE1,PEPTIDE1,6:R3-15:R3$$$V2.0), the EC50 [2, 4] was 9 µM.

Work on `CC(C)C[C@@H]1NC(=O)[C@@H]2CCCN2C(=O)CNC(=O)[C@H](Cc2ccccc2)NC(=O)[C@H](Cc2c[nH]cn2)NC(=O)[C@@H](NC(=O)[C@H](CO)NC(=O)[C@H](Cc2ccc(O)cc2)NC(=O)[C@H](CCCCN)NC(=O)[C@H](CCCNC(=N)N)NC(=O)CNC(=O)[C@@H](N)CC(C)C)CSSC[C@@H](C(=O)N[C@@H](CCC(N)=O)C(=O)N2CCC[C@H]2C(=O)N[C@@H](C)C(=O)N[C@@H](CCCCN)C(=O)N[C@@H](CCCCN)C(=O)N[C@@H](CC(=O)O)C(N)=O)NC(=O)[C@H](C(C)C)NC(=O)[C@H](Cc2c[nH]c3ccccc23)NC(=O)[C@H]([C@@H](C)O)NC1=O` [RWJ 61757] (HELM PEPTIDE1{L.G.R.K.Y.S.C.H.F.G.P.L.T.W.V.C.Q.P.A.K.K.D.[am]}$PEPTIDE1,PEPTIDE1,7:R3-16:R3$$$V2.0) yielded an EC50 [1] of 0.15 µM and an EC50 [2, 3] of 0.11 µM.

Reference: US5773569A (Affymax Technologies N.V., priority 1995, dated 1998)
